Three molecules from ChEMBL document CHEMBL1144070, “Microbial transformation of sampangine” (1999) can be followed below.

Experiment [1] relates to Cryptococcus neoformans. The experiment is described as follows: Antifungal activity against Cryptococcus neoformans ATCC 52657 after 48 hrs by agar well diffusion method. Format: functional. Particulars: ATCC 52657, 48 h. In general terms: In agar diffusion tests the substance spreads into inoculated agar from a disc or well.
Experiment [2] concerns Candida albicans. Put plainly: Antifungal activity against Candida albicans NIH B311 after 24 hrs by agar well diffusion method. In kind it is functional.
For experiment [3], the system named is Cryptococcus neoformans. Put plainly: Antifungal activity against Cryptococcus neoformans infected in Swiss ICR mouse assessed as lethality at 50 mg/kg, ip administered 24 hrs post infection for 12 days. Format: functional, organism-based. The arrangement: dose 50 mg/kg.

In brackets after ≈: the same amount, converted by molar mass. Activity calls are given as the source filed them. No cut-off for these calls is given here.

As a reminder, the MIC is the least concentration at which growth counts as inhibited. A low value points to inhibition by little substance. Take `CO[C@H]1[C@H](O)[C@@H](O)[C@H](Oc2c3c4c(ccnc4c4ccccc24)C=CN3)O[C@@H]1CO`: inhibition of growth in experiment [1] (MIC) required 0.2 µg/mL (≈ 0.487 µM). Moreover, the outcome in experiment [2] was inactive.

Regarding `O=C1c2ccccc2-c2nccc3ccnc1c23` [SAMPANGINE], the figures for the MIC in experiment [1] and in experiment [2] were 0.2 µg/mL (≈ 0.861 µM) and 3.12 µg/mL (≈ 13.4 µM), respectively.

For `OC[C@H]1O[C@@H](Oc2c3c4c(ccnc4c4ccccc24)C=CN3)[C@H](O)[C@@H](O)[C@@H]1O`, the result in experiment [3] and in experiment [2] was inactive. The molecule also came in with an MIC in experiment [1] of 0.78 µg/mL (≈ 1.97 µM).
